ChEMBL document CHEMBL4000244, “Probing A-form DNA: A fluorescent aminosugar probe and dual recognition by anthraquinone-neomycin conjugates” (Bioorg Med Chem, 2017)

Key:
[1] = Binding affinity to 5'-CGCGGGCG-3' DNA hairpin assessed as change in fluorescence intensity at 1 uM after 45 mins by fluorescence quenching analysis relative to control
[2] = Binding affinity to 5'-CCCCGGGC-3' DNA hairpin assessed as change in fluorescence intensity at 1 uM after 45 mins by fluorescence quenching analysis relative to control
[3] = Binding affinity to 5'-GCCCGCGG-3' DNA hairpin assessed as change in fluorescence intensity at 1 uM after 45 mins by fluorescence quenching analysis relative to control
[4] = Binding affinity to 5'-GGCGGGCG-3' DNA hairpin assessed as change in fluorescence intensity at 1 uM after 45 mins by fluorescence quenching analysis relative to control
[5] = Binding affinity to 5'-GCCGGGCC-3' DNA hairpin assessed as change in fluorescence intensity at 1 uM after 45 mins by fluorescence quenching analysis relative to control
[6] = Binding affinity to 5'-CGGGCGCG-3' DNA hairpin assessed as change in fluorescence intensity at 1 uM after 45 mins by fluorescence quenching analysis relative to control
[7] = Binding affinity to 5'-GGGCGCGC-3' DNA hairpin assessed as change in fluorescence intensity at 1 uM after 45 mins by fluorescence quenching analysis relative to control
[8] = Binding affinity to 5'-CCGGCGGC-3' DNA hairpin assessed as change in fluorescence intensity at 1 uM after 45 mins by fluorescence quenching analysis relative to control
[9] = Binding affinity to 5'-CGCGGCCC-3' DNA hairpin assessed as change in fluorescence intensity at 1 uM after 45 mins by fluorescence quenching analysis relative to control
[10] = Binding affinity to 5'-GCGCCGCG-3' DNA hairpin assessed as change in fluorescence intensity at 1 uM after 45 mins by fluorescence quenching analysis relative to control
[11] = Binding affinity to 5'-GGCCGCGG-3' DNA hairpin assessed as change in fluorescence intensity at 1 uM after 45 mins by fluorescence quenching analysis relative to control
[12] = Binding affinity to 5'-CCCGCCGG-3' DNA hairpin assessed as change in fluorescence intensity at 1 uM after 45 mins by fluorescence quenching analysis relative to control
[13] = Binding affinity to 5'-GCGCGGGC-3' DNA hairpin assessed as change in fluorescence intensity at 1 uM after 45 mins by fluorescence quenching analysis relative to control
[14] = Binding affinity to 5'-GGGGCCCC-3' DNA hairpin assessed as change in fluorescence intensity at 1 uM after 45 mins by fluorescence quenching analysis relative to control
[15] = Binding affinity to 5'-CCCGGGGC-3' DNA hairpin assessed as change in fluorescence intensity at 1 uM after 45 mins by fluorescence quenching analysis relative to control
[16] = Binding affinity to 5'-CCGGCGCG-3' DNA hairpin assessed as change in fluorescence intensity at 1 uM after 45 mins by fluorescence quenching analysis relative to control
[17] = Binding affinity to 5'-CGCGGCGG-3' DNA hairpin assessed as change in fluorescence intensity at 1 uM after 45 mins by fluorescence quenching analysis relative to control
[18] = Binding affinity to 5'-GCCGGGGG-3' DNA hairpin assessed as change in fluorescence intensity at 1 uM after 45 mins by fluorescence quenching analysis relative to control
[19] = Binding affinity to 5'-GGCGGCCC-3' DNA hairpin assessed as change in fluorescence intensity at 1 uM after 45 mins by fluorescence quenching analysis relative to control
[20] = Binding affinity to 5'-CGCGGGCC-3' DNA hairpin assessed as change in fluorescence intensity at 1 uM after 45 mins by fluorescence quenching analysis relative to control
[21] = Binding affinity to 5'-GCGCCCCG-3' DNA hairpin assessed as change in fluorescence intensity at 1 uM after 45 mins by fluorescence quenching analysis relative to control
[22] = Binding affinity to 5'-GCGCCGGC-3' DNA hairpin assessed as change in fluorescence intensity at 1 uM after 45 mins by fluorescence quenching analysis relative to control
[23] = Binding affinity to 5'-CCGCCCCG-3' DNA hairpin assessed as change in fluorescence intensity at 1 uM after 45 mins by fluorescence quenching analysis relative to control
[24] = Binding affinity to 5'-CGCGCCGG-3' DNA hairpin assessed as change in fluorescence intensity at 1 uM after 45 mins by fluorescence quenching analysis relative to control
[25] = Binding affinity to 5'-GGGGGCGG-3' DNA hairpin assessed as change in fluorescence intensity at 1 uM after 45 mins by fluorescence quenching analysis relative to control
[26] = Binding affinity to 5'-CCCCGGGG-3' DNA hairpin assessed as change in fluorescence intensity at 1 uM after 45 mins by fluorescence quenching analysis relative to control
[27] = Binding affinity to 5'-CCGGGGGC-3' DNA hairpin assessed as change in fluorescence intensity at 1 uM after 45 mins by fluorescence quenching analysis relative to control
[28] = Binding affinity to 5'-CCGCCGCG-3' DNA hairpin assessed as change in fluorescence intensity at 1 uM after 45 mins by fluorescence quenching analysis relative to control
[29] = Binding affinity to 5'-GCGCCGCC-3' DNA hairpin assessed as change in fluorescence intensity at 1 uM after 45 mins by fluorescence quenching analysis relative to control
[30] = Binding affinity to 5'-GCGCCGGG-3' DNA hairpin assessed as change in fluorescence intensity at 1 uM after 45 mins by fluorescence quenching analysis relative to control
[31] = Binding affinity to 5'-GGCGCCCC-3' DNA hairpin assessed as change in fluorescence intensity at 1 uM after 45 mins by fluorescence quenching analysis relative to control
[32] = Binding affinity to 5'-CGGCCGGC-3' DNA hairpin assessed as change in fluorescence intensity at 1 uM after 45 mins by fluorescence quenching analysis relative to control
[33] = Binding affinity to 5'-CCCCGGCC-3' DNA hairpin assessed as change in fluorescence intensity at 1 uM after 45 mins by fluorescence quenching analysis relative to control
[34] = Binding affinity to 5'-GCGGCGCG-3' DNA hairpin assessed as change in fluorescence intensity at 1 uM after 45 mins by fluorescence quenching analysis relative to control
[35] = Binding affinity to 5'-CCCCCCGG-3' DNA hairpin assessed as change in fluorescence intensity at 1 uM after 45 mins by fluorescence quenching analysis relative to control
[36] = Binding affinity to 5'-GGGCCCCC-3' DNA hairpin assessed as change in fluorescence intensity at 1 uM after 45 mins by fluorescence quenching analysis relative to control

Activity [1]: 47.5%
Activity [2]: 43%
Activity [3]: 50.3%
Activity [4]: 48.3%
Activity [5]: 51%
Activity [6]: 48.7%
Activity [7]: 58.3%
Activity [8]: 47.4%
Activity [9]: 44.6%
Activity [10]: 46.9%
Activity [11]: 49.8%
Activity [12]: 50.9%
Activity [13]: 51.8%
Activity [14]: 15%
Activity [15]: 33.4%
Activity [16]: 45.4%
Activity [17]: 52%
Activity [18]: 42.5%
Activity [19]: 41.2%
Activity [20]: 44.3%
Activity [21]: 44.1%
Activity [22]: 55.1%
Activity [23]: 49.3%
Activity [24]: 43.8%
Activity [25]: 38.3%
Activity [26]: 32.7%
Activity [27]: 38.4%
Activity [28]: 44%
Activity [29]: 50.4%
Activity [30]: 46.9%
Activity [31]: 37.8%
Activity [32]: 44.9%
Activity [33]: 37.6%
Activity [34]: 45.8%
Activity [35]: 30.9%
Activity [36]: 15%
SMILES: NCC1O[C@H](O[C@H]2[C@@H](O)[C@H](O[C@@H]3[C@@H](O)[C@H](N)C[C@H](N)[C@H]3O[C@H]3O[C@H](CN)[C@@H](O)[C@H](O)[C@H]3N)O[C@@H]2CSCCNC(=O)CCSCC(=O)Nc2ccc(-c3c4ccc(=O)cc-4oc4cc(O)ccc34)c(C(=O)O)c2)[C@H](N)[C@@H](O)[C@@H]1O (stereo partly specified)
